In ChEMBL document CHEMBL1201862, “PubChem BioAssay data set” (2004):
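Briefly, cells in 96-well plates were exposed to five compound concentrations for 48 h, and endpoints were estimated by linear interpolation. At the GI50, growth is halved.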 The source made the active and inactive calls. Rule as the data show it: active = GI50 up to about 1.1 µM and inactive = higher.

Columns and labels:
Assay in all cases: NCI-60 cell line screen, 48 h
786-0 = system: 786-0
CAKI-1 = system: CAKI-1
COLO 205 = system: COLO 205
DU-145 = system: DU-145
EKVX = system: EKVX
HCC 2998 = system: HCC 2998
LOX IMVI = system: LOX IMVI
M14 = system: M14
MCF7 = system: MCF7
MDA-MB-435 = system: MDA-MB-435
NCI-H226 = system: NCI-H226
OVCAR-5 = system: OVCAR-5
SF-295 = system: SF-295
SK-OV-3 = system: SK-OV-3
SN12C = system: SN12C
SNB-19 = system: SNB-19
SW-620 = system: SW-620
UACC-257 = system: UACC-257
A549 = system: A549
NCI-H522 = system: NCI-H522

Measured: GI50

Oc1ccc2c(c1)OCC(O)(c1ccccc1O)C2 (configuration not stated)
inactive: 786-0 > 100 µM | CAKI-1 > 100 µM | COLO 205 > 100 µM | DU-145 > 100 µM | EKVX > 100 µM | HCC 2998 > 100 µM | LOX IMVI > 100 µM | M14 > 100 µM | MCF7 > 100 µM | MDA-MB-435 > 100 µM | NCI-H226 > 100 µM | OVCAR-5 > 100 µM | SF-295 > 100 µM | SK-OV-3 > 100 µM | SN12C > 100 µM | SNB-19 > 100 µM | SW-620 > 100 µM | UACC-257 > 100 µM

O=C1Cc2c([nH]c3ccc(Br)cc23)-c2cc(Br)ccc2N1
inactive: 786-0 > 100 µM | A549 > 100 µM | CAKI-1 > 100 µM | COLO 205 > 100 µM | DU-145 > 100 µM | EKVX > 100 µM | HCC 2998 > 100 µM | LOX IMVI > 100 µM | M14 > 100 µM | MCF7 > 100 µM | MDA-MB-435 > 100 µM | NCI-H226 > 100 µM | OVCAR-5 > 100 µM | SF-295 > 100 µM | SK-OV-3 > 100 µM | SNB-19 > 100 µM | SW-620 > 100 µM | UACC-257 > 100 µM

Cc1nc2c(ccc3[nH]c4ccccc4c32)s1
inactive: 786-0 26.1 µM | A549 28.4 µM | CAKI-1 47.5 µM | COLO 205 20.5 µM | DU-145 33.8 µM | EKVX 21.2 µM | HCC 2998 15.3 µM | M14 18.9 µM | MCF7 26.7 µM | MDA-MB-435 26.4 µM | NCI-H226 14.8 µM | NCI-H522 15.9 µM | OVCAR-5 19.3 µM | SK-OV-3 22.3 µM | SN12C 24 µM | SNB-19 37.8 µM | SW-620 19.7 µM | UACC-257 35.6 µM

Nc1ncc2c(n1)-c1ccccc1OC2NC1CC1 (configuration not stated)
inactive: 786-0 > 100 µM | A549 > 100 µM | CAKI-1 > 100 µM | COLO 205 > 100 µM | DU-145 > 100 µM | EKVX 97.5 µM | LOX IMVI > 100 µM | M14 > 100 µM | MCF7 > 100 µM | MDA-MB-435 > 100 µM | NCI-H226 > 100 µM | NCI-H522 > 100 µM | OVCAR-5 > 100 µM | SF-295 > 100 µM | SK-OV-3 > 100 µM | SN12C > 100 µM | SNB-19 > 100 µM | SW-620 > 100 µM | UACC-257 > 100 µM

O=c1cnn(C/C=C/CBr)c(=O)[nH]1
inactive: A549 16.8 µM | CAKI-1 12.9 µM | COLO 205 18.8 µM | DU-145 24.2 µM | EKVX 19.6 µM | HCC 2998 18.5 µM | LOX IMVI 16.1 µM | M14 15.3 µM | MCF7 12.9 µM | MDA-MB-435 14.9 µM | NCI-H226 17 µM | NCI-H522 8.17 µM | OVCAR-5 17.4 µM | SN12C 17.9 µM | SNB-19 24.7 µM | SW-620 13.6 µM | UACC-257 13.9 µM

CC1C(c2ccccc2)O[B-](F)(c2ccccc2)[NH+]1C (configuration not stated)
inactive: 786-0 > 100 µM | A549 > 100 µM | COLO 205 > 100 µM | DU-145 > 100 µM | EKVX > 100 µM | HCC 2998 > 100 µM | LOX IMVI > 100 µM | M14 > 100 µM | MCF7 > 100 µM | MDA-MB-435 > 100 µM | NCI-H226 > 100 µM | OVCAR-5 > 100 µM | SF-295 > 100 µM | SK-OV-3 > 100 µM | SN12C > 100 µM | SNB-19 > 100 µM | SW-620 > 100 µM | UACC-257 > 100 µM

CC1=CCC[C@]2(C)C1=CC(=O)O[C@H]2c1ccoc1
inactive: 786-0 > 100 µM | A549 > 100 µM | CAKI-1 > 100 µM | COLO 205 > 100 µM | DU-145 > 100 µM | EKVX > 100 µM | HCC 2998 > 100 µM | LOX IMVI > 100 µM | MCF7 > 100 µM | MDA-MB-435 > 100 µM | NCI-H226 > 100 µM | NCI-H522 > 100 µM | OVCAR-5 > 100 µM | SF-295 > 100 µM | SK-OV-3 > 100 µM | SN12C > 100 µM | SNB-19 23.6 µM | SW-620 > 100 µM | UACC-257 > 100 µM
